Columns and labels:
WT CBL-B (36-427) = molecular target: T1, WT CBL-B (36-427) (Homo sapiens, UniProt Q13191); experiment: Surface Plasmon Resonance (SPR) assay, binding affinity and kinetics, CBL-B; settings: SPR at 10° C., biotinylated WT CBL-B (36-427) on streptavidin chip; geometric mean; read-out: CBL-B SPR Kd (nM) GMean
T1 construct: N-terminal biotinylated WT CBL-B (36-427) and C-CBL (46-435) were captured on a streptavidin (SA) coated sensor chip
How it was run: (§1)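 SPR kinetics at 10° C, run either single-cycle (0.001–1 μM, 3-fold, 6 points, 120 s on, >5400 s off) or multi-cycle (10 points, 2-fold, top 10 or 100 μM, 90 s on). Proteins were N-biotinylated CBL-B (36-427) and C-CBL (46-435) on SA surfaces, in pH 7.2 HEPES, 2% DMSO.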

CBL-B (residues 36-427) = molecular target: T2, CBL-B (residues 36-427) (Homo sapiens, UniProt Q13191); experiment: Ligand Displacement Assay (LDA), HTRF competitive binding against BODIPY-labeled fluorescent tracer, CBL-B; settings: geometric mean of the number of tests, read-out: CBL-B Ki (nM) GMean
T2 construct: Purified CBL-B (residues 36-427) and C-CBL (residues 46-435) proteins from baculovirus-infected insect cells; made in house; host or cells: baculovirus-infected insect cells
How it was run: (§2)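 First, the insect-cell-expressed protein is biotinylated at its amino-terminal AviTag with BirA and coupled to SA-Tb. Next, the tracer KD is determined for each protein. Finally, compounds are titrated three-fold in duplicate […], at 2% DMSO, and Ki is reported as a geometric mean.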

C-CBL (residues 46-435) = molecular target: T3, C-CBL (residues 46-435) (Homo sapiens, UniProt P22681); experiment: Ligand Displacement Assay (LDA), HTRF competitive binding against BODIPY-labeled fluorescent tracer, C-CBL; settings: geometric mean of the number of tests, read-out: C-CBL Ki (nM) GMean
T3 construct: Purified CBL-B (residues 36-427) and C-CBL (residues 46-435) proteins from baculovirus-infected insect cells; made in house; host or cells: baculovirus-infected insect cells
T3 sequence (P22681 46-435): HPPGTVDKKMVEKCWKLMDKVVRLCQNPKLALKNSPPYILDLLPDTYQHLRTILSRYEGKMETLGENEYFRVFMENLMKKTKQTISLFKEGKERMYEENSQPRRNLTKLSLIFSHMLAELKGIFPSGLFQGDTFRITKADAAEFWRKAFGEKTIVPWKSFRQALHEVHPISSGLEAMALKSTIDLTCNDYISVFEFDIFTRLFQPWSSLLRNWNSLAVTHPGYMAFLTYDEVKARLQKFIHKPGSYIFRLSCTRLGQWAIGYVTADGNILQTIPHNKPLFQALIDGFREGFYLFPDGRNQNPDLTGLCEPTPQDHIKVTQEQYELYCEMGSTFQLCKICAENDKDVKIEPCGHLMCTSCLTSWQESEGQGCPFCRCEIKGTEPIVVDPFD
How it was run: as §2

C-CBL (46-435) = molecular target: T4, C-CBL (46-435) (Homo sapiens, UniProt P22681); experiment: Surface Plasmon Resonance (SPR) assay, binding affinity and kinetics, C-CBL; settings: SPR at 10° C., biotinylated C-CBL (46-435) on streptavidin chip; geometric mean; read-out: C-CBL SPR Kd (nM) GMean
T4 construct: N-terminal biotinylated WT CBL-B (36-427) and C-CBL (46-435) were captured on a streptavidin (SA) coated sensor chip
T4 sequence (P22681 46-435): T3 sequence (P22681 46-435)
How it was run: as §1

In the case of `CN1CCC(Oc2nc(C(F)(F)F)cc3c(-c4cccc(C5(Cc6nncn6C)COC5)c4)n[nH]c23)C1` (stereo in doubt) [Example J2, 7-{[(3S)-1-methylpyrrolidin-3-yl]oxy}-3-(3-{3-[(4-methyl-4H-1,2,4-triazol-3-yl)methyl]oxetan-3-yl}phenyl)-5-(trifluoromethyl)-1H-pyrazolo[3,4-c]pyridine], the Kd (WT CBL-B (36-427)) is reported as 4.8 nM, the Ki (CBL-B (residues 36-427)) is reported as 19.1 nM and the Ki (C-CBL (residues 46-435)) is reported as 76.6 nM. The Kd (C-CBL (46-435)) was 37.6 nM.
Work on `CNc1nc2[nH]nc(-c3cccc([C@H](c4nncn4C)C4CCC4)c3)c2cc1C(F)(F)F` [E2, 3-{3-[(R)-cyclobutyl(4-methyl-4H-1,2,4-triazol-3-yl)methyl]phenyl}-N-methyl-5-(trifluoromethyl)-1H-pyrazolo[3,4-b]pyridin-6-amine] yielded a Kd (WT CBL-B (36-427)) of 53.9 nM, a Ki (CBL-B (residues 36-427)) of 244 nM and a Ki (C-CBL (residues 46-435)) of 2650 nM. The Kd (C-CBL (46-435)) was 1730 nM.
In the case of `Cn1cnnc1[C@@H](c1cccc(-c2n[nH]c3cnc(Cl)cc23)c1)C1CCC1` [Example A3, 5-chloro-3-{3-[(R)-cyclobutyl(4-methyl-4H-1,2,4-triazol-3-yl)methyl]phenyl}-1H-pyrazolo[3,4-c]pyridine], the Kd (WT CBL-B (36-427)) is reported as 12.9 nM, the Ki (CBL-B (residues 36-427)) is reported as 31.1 nM and the Ki (C-CBL (residues 46-435)) is reported as 362 nM. The Kd (C-CBL (46-435)) was 301 nM.
`Cc1cc2c(-c3cccc([C@H](c4nncn4C)C4CCC4)c3)n[nH]c2cn1` [Example A6, 3-{3-[(R)-cyclobutyl(4-methyl-4H-1,2,4-triazol-3-yl)methyl]phenyl}-5-methyl-1H-pyrazolo[3,4-c]pyridine] showed a Kd (WT CBL-B (36-427)) of 21.4 nM, a Ki (CBL-B (residues 36-427)) of 51.5 nM and a Ki (C-CBL (residues 46-435)) of 525 nM. For the same compound, the Kd (C-CBL (46-435)) was 882 nM.
`Cc1nccc2c(-c3cccc([C@H](c4nncn4C)C4CCC4)c3)n[nH]c12` [Example A7, 3-{3-[(R)-cyclobutyl(4-methyl-4H-1,2,4-triazol-3-yl)methyl]phenyl}-7-methyl-1H-pyrazolo[3,4-c]pyridine] was tested, and the Kd (WT CBL-B (36-427)) was 31 nM, the Ki (CBL-B (residues 36-427)) was 83.8 nM and the Ki (C-CBL (residues 46-435)) was 767 nM. It also gave a Kd (C-CBL (46-435)) of 1300 nM.
For `Cn1cnnc1CC1(c2cccc(-c3n[nH]c4cnc(C5CC5)cc34)c2)COC1` [Example B4, 5-cyclopropyl-3-(3-{3-[(4-methyl-4H-1,2,4-triazol-3-yl)methyl]oxetan-3-yl}phenyl)-1H-pyrazolo[3,4-c]pyridine], the Kd (WT CBL-B (36-427)) was 58.7 nM, the Ki (CBL-B (residues 36-427)) was 73.9 nM and the Ki (C-CBL (residues 46-435)) was 254 nM. The Kd (C-CBL (46-435)) was 578 nM.
`Cn1cnnc1CC1(c2cccc(-c3n[nH]c4ccc(Cl)cc34)c2)COC1` [Example B7, 5-chloro-3-(3-{3-[(4-methyl-4H-1,2,4-triazol-3-yl)methyl]oxetan-3-yl}phenyl)-1H-indazole] gave a Kd (WT CBL-B (36-427)) of 7.2 nM, a Ki (CBL-B (residues 36-427)) of 25.1 nM and a Ki (C-CBL (residues 46-435)) of 150 nM. For the same compound, the Kd (C-CBL (46-435)) was 108 nM.
`Cn1cnnc1CC1(c2cccc(-c3n[nH]c4cnc(Cl)cc34)c2)COC1` [Example B8, 5-chloro-3-(3-{3-[(4-methyl-4H-1,2,4-triazol-3-yl)methyl]oxetan-3-yl}phenyl)-1H-pyrazolo[3,4-c]pyridine] was tested, and the Kd (WT CBL-B (36-427)) was 15.9 nM, the Ki (CBL-B (residues 36-427)) was 28.6 nM and the Ki (C-CBL (residues 46-435)) was 142 nM. The Kd (C-CBL (46-435)) was 180 nM.
In the case of `Cn1cnnc1CC1(c2cccc(-c3n[nH]c4cnc(OC(F)(F)F)cc34)c2)COC1` [Example B9, 3-(3-{3-[(4-methyl-4H-1,2,4-triazol-3-yl)methyl]oxetan-3-yl}phenyl)-5-(trifluoromethoxy)-1H-pyrazolo[3,4-c]pyridine], the Kd (WT CBL-B (36-427)) is reported as 32.5 nM, the Ki (CBL-B (residues 36-427)) is reported as 74.5 nM and the Ki (C-CBL (residues 46-435)) is reported as 238 nM. The Kd (C-CBL (46-435)) was 244 nM.
`Cn1cnnc1CC1(c2cccc(-c3n[nH]c4cnc(OC(F)F)cc34)c2)COC1` [Example B10, 5-(difluoromethoxy)-3-(3-{3-[(4-methyl-4H-1,2,4-triazol-3-yl)methyl]oxetan-3-yl}phenyl)-1H-pyrazolo[3,4-c]pyridine] gave a Kd (WT CBL-B (36-427)) of 22.2 nM, a Ki (CBL-B (residues 36-427)) of 57.8 nM and a Ki (C-CBL (residues 46-435)) of 187 nM. For the same compound, the Kd (C-CBL (46-435)) was 141 nM.
`Cn1cnnc1CC1(c2cccc(-c3n[nH]c4c(CN[C@H]5CCOC5)nc(C(F)(F)F)cc34)c2)COC1` [Example C50] gave a Kd (WT CBL-B (36-427)) of 14.5 nM, a Ki (CBL-B (residues 36-427)) of 24.7 nM and a Ki (C-CBL (residues 46-435)) of 90 nM. It also gave a Kd (C-CBL (46-435)) of 145 nM.

Reference: patent publication US20260125375A1 (Pfizer Inc., priority 2022, published 2026)
